Experimental data as given in the supplement of paper PMC10307832.

Legend:
Assay in all cases: relative viability (nuclei count vs DMSO), 5 days (fraction); higher = more cells survive
Ibrutinib + OSI-027 = compound: C=CC(=O)N1CCC[C@@H](n2nc(-c3ccc(Oc4ccccc4)cc3)c3c(N)ncnc32)C1 [Ibrutinib] + COc1cccc2cc(-c3nc([C@H]4CC[C@H](C(=O)O)CC4)n4ncnc(N)c34)[nH]c12 [OSI-027] (partner 0.5 µM)
Summary of the method: (§1)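 Relative viability divides the nuclei count in treated wells by that in vehicle wells. Lung cancer cell lines were seeded in 1536-well plates, dosed by pin tool the next day, and fixed and stained after 5 days in one step with final 0.05% Triton X-100, 1% formaldehyde and 1 ug/ml Hoechst. Dosing was a single drug or a fixed anchor-drug dose plus five library-drug doses (not always all listed) in √10 steps, and values are medians of duplicate plates imaged at 4×.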

Ibrutinib + Crizotinib = compound: C=CC(=O)N1CCC[C@@H](n2nc(-c3ccc(Oc4ccccc4)cc3)c3c(N)ncnc32)C1 [Ibrutinib] + C[C@@H](Oc1cc(-c2cnn(C3CCNCC3)c2)cnc1N)c1c(Cl)ccc(F)c1Cl [Crizotinib] (partner 1 µM)
Summary of the method: as §1

Ibrutinib + Linsitinib = compound: C=CC(=O)N1CCC[C@@H](n2nc(-c3ccc(Oc4ccccc4)cc3)c3c(N)ncnc32)C1 [Ibrutinib] + C[C@]1(O)C[C@@H](c2nc(-c3ccc4ccc(-c5ccccc5)nc4c3)c3c(N)nccn32)C1 [Linsitinib] (partner 1 µM)
Summary of the method: as §1

Ibrutinib + Vorinostat = compound: C=CC(=O)N1CCC[C@@H](n2nc(-c3ccc(Oc4ccccc4)cc3)c3c(N)ncnc32)C1 [Ibrutinib] + O=C(CCCCCCC(=O)Nc1ccccc1)NO [Vorinostat] (partner 1 µM)
Summary of the method: as §1

| Cell Line | relative viability (Ibrutinib + OSI-027; first compound 0.01581 µM) | relative viability (Ibrutinib + OSI-027; first compound 0.05 µM) | relative viability (Ibrutinib + OSI-027; first compound 0.1581 µM) | relative viability (Ibrutinib + OSI-027; first compound 0.5 µM) | relative viability (Ibrutinib + Crizotinib; first compound 0.005 µM) | relative viability (Ibrutinib + Crizotinib; first compound 0.01581 µM) | relative viability (Ibrutinib + Crizotinib; first compound 0.05 µM) | relative viability (Ibrutinib + Crizotinib; first compound 0.1581 µM) | relative viability (Ibrutinib + Crizotinib; first compound 0.5 µM) | relative viability (Ibrutinib + Linsitinib; first compound 0.005 µM) | relative viability (Ibrutinib + Linsitinib; first compound 0.01581 µM) | relative viability (Ibrutinib + Linsitinib; first compound 0.05 µM) | relative viability (Ibrutinib + Linsitinib; first compound 0.1581 µM) | relative viability (Ibrutinib + Linsitinib; first compound 0.5 µM) | relative viability (Ibrutinib + Vorinostat; first compound 0.005 µM) | relative viability (Ibrutinib + Vorinostat; first compound 0.01581 µM) | relative viability (Ibrutinib + Vorinostat; first compound 0.05 µM) | relative viability (Ibrutinib + Vorinostat; first compound 0.1581 µM) | relative viability (Ibrutinib + Vorinostat; first compound 0.5 µM) | relative viability (Ibrutinib + OSI-027; first compound 0.005 µM) |
| --- | --- | --- | --- | --- | --- | --- | --- | --- | --- | --- | --- | --- | --- | --- | --- | --- | --- | --- | --- | --- |
| NCI-H596 | 0.777 | 0.625 | 0.675 | 0.526 | 0.974 | 0.955 | 0.903 | 0.803 | 0.747 | 1.13 | 0.946 | 0.99 | 0.996 | 0.841 | 0.468 | 0.628 | 0.501 | 0.57 | 0.572 |  |
| NCI-H647 | 0.542 | 0.671 | 0.841 | 0.812 | 1.03 | 1.07 | 1.13 | 1.06 | 0.993 | 1.05 | 0.995 | 1.15 | 1.14 | 1.1 | 0.569 | 0.472 | 0.695 | 0.645 | 0.67 |  |
| NCI-H650 | 0.481 | 0.518 | 0.621 | 0.539 |  | 0.656 |  | 0.863 | 0.805 |  | 0.688 |  | 1.19 | 0.889 | 0.36 | 0.389 | 0.413 | 0.578 | 0.45 | 0.515 |
| NCI-H661 | 0.674 | 0.476 | 0.698 | 0.423 |  |  | 1.09 | 0.904 | 0.873 | 0.477 | 0.48 | 0.543 | 0.546 | 0.355 | 0.746 | 0.761 | 0.752 | 0.758 | 0.752 | 0.702 |
| NCI-H727 | 0.591 | 0.674 |  | 0.577 | 0.74 | 0.616 | 0.71 | 0.868 | 0.617 | 0.285 | 0.288 | 0.319 | 0.203 | 0.31 | 1.11 | 1.18 | 1.26 | 0.808 | 1.12 | 0.506 |
| NCI-H838 | 0.405 | 0.387 | 0.399 | 0.481 | 0.881 | 0.842 | 0.979 | 0.873 | 0.793 | 1.02 | 1 | 0.983 | 1.08 | 1.01 | 0.786 | 0.688 | 0.762 | 0.77 | 0.717 | 0.36 |
| NCI-H1355 | 0.388 | 0.382 | 0.347 | 0.403 |  | 0.957 | 0.971 | 1.15 | 0.827 |  | 0.666 | 0.713 | 0.885 | 0.67 |  | 0.626 |  | 0.688 | 0.549 | 0.29 |
| NCI-H1437 | 0.846 | 0.941 | 0.913 | 0.878 | 0.848 | 0.874 | 0.901 | 1.02 | 0.916 | 1.01 | 0.926 | 0.989 | 1.09 | 0.993 | 0.865 | 0.919 | 0.908 | 0.854 | 1.02 | 0.718 |
| NCI-H1651 | 0.663 | 0.792 | 0.685 | 0.768 | 0.952 | 0.871 | 0.819 | 0.818 | 0.88 | 0.99 | 0.765 | 0.901 | 0.991 | 0.927 | 0.492 | 0.629 | 0.524 | 0.577 | 0.574 | 0.624 |
